The supplement of paper PMC10307832

Legend:
Test in all cases: relative viability (nuclei count vs DMSO), 5 days (fraction); higher = more cells survive
[1] = compound: Cc1ccc(Nc2nccc(N(C)c3ccc4c(C)n(C)nc4c3)n2)cc1S(N)(=O)=O [Pazopanib] + O=C(c1cc(Cc2n[nH]c(=O)c3ccccc23)ccc1F)N1CCN(C(=O)C2CC2)CC1 [Olaparib] (partner 8 µM)
In short: (§1)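 Relative viability is defined as nuclei in treated wells over nuclei in vehicle wells. Duplicate plates were run and medians reported. Lung cancer cell lines in 1536-well plates were dosed by pin tool one day after seeding, with one drug or with a fixed anchor-drug dose plus five library-drug doses (not always all listed) in √10 steps, and nuclei were counted after 5 days.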

[2] = compound: Cc1ccc(Nc2nccc(N(C)c3ccc4c(C)n(C)nc4c3)n2)cc1S(N)(=O)=O [Pazopanib] + C[C@@H](Oc1cc(-c2cnn(C3CCNCC3)c2)cnc1N)c1c(Cl)ccc(F)c1Cl [Crizotinib] (partner 1 µM)
In short: as §1

[3] = compound: Cc1ccc(C(=O)Nc2ccc(CN3CCN(C)CC3)c(C(F)(F)F)c2)cc1C#Cc1cnc2cccnn12 [Ponatinib] + CS(=O)(=O)CCNCc1ccc(-c2ccc3ncnc(Nc4ccc(OCc5cccc(F)c5)c(Cl)c4)c3c2)o1 [Lapatinib] (partner 2 µM)
In short: as §1

[4] = compound: Cc1ccc(Nc2nccc(N(C)c3ccc4c(C)n(C)nc4c3)n2)cc1S(N)(=O)=O [Pazopanib] + Nc1ncn([C@H]2C[C@H](O)[C@@H](CO)O2)c(=O)n1 [Decitabine] (partner 2 µM)
In short: as §1

Cell Line | relative viability ([1]; first compound 0.03162 µM) | relative viability ([1]; first compound 0.1 µM) | relative viability ([1]; first compound 0.3162 µM) | relative viability ([1]; first compound 1 µM) | relative viability ([2]; first compound 0.01 µM) | relative viability ([2]; first compound 0.03162 µM) | relative viability ([2]; first compound 0.1 µM) | relative viability ([2]; first compound 0.3162 µM) | relative viability ([2]; first compound 1 µM) | relative viability ([3]; first compound 0.002 µM) | relative viability ([3]; first compound 0.006325 µM) | relative viability ([3]; first compound 0.06325 µM) | relative viability ([3]; first compound 0.2 µM) | relative viability ([4]; first compound 0.03162 µM) | relative viability ([4]; first compound 0.1 µM) | relative viability ([4]; first compound 0.3162 µM) | relative viability ([4]; first compound 1 µM) | relative viability ([1]; first compound 0.01 µM) | relative viability ([4]; first compound 0.01 µM)
HCC-78 | 0.87 | 0.778 | 0.906 | 0.995 | 0.366 | 0.354 | 0.349 | 0.358 | 0.383 | 0.74 | 0.709 | 0.597 | 0.63 | 0.729 | 0.648 | 0.691 | 0.818 | – | –
HCC-366 | 0.357 | 0.396 | 0.396 | 0.35 | 0.508 | 0.485 | 0.478 | 0.528 | 0.63 | 1.01 | 1.01 | 1.08 | 1.01 | 0.302 | 0.378 | 0.326 | 0.473 | 0.31 | 0.384
HCC-827 | 0.644 | 0.691 | 0.706 | 0.673 | 0.999 | 0.976 | 0.906 | 0.902 | 0.922 | 0.214 | 0.186 | 0.202 | 0.184 | 0.322 | 0.293 | 0.355 | 0.348 | 0.675 | 0.333
HOP-62 | 0.454 | 0.518 | 0.383 | 0.288 | 0.974 | 0.68 | – | 0.946 | 0.948 | 0.929 | 0.987 | 0.856 | 0.91 | 0.238 | 0.228 | 0.288 | 0.196 | 0.411 | 0.208
IA-LM | 0.909 | 0.925 | 0.774 | 0.658 | 0.93 | – | 0.938 | 0.843 | 0.659 | 0.897 | 0.67 | 0.77 | 0.721 | – | – | – | – | 0.719 | –
LC-2-ad | 0.684 | 0.705 | 0.778 | 0.682 | 0.483 | 0.462 | 0.467 | 0.423 | 0.467 | 0.969 | 0.697 | 0.49 | 0.495 | 0.644 | 0.915 | 0.85 | 0.776 | 0.796 | 0.88
LCLC-97TM1 | 0.313 | 0.534 | 0.293 | 0.252 | – | 0.309 | 0.277 | 0.297 | 0.427 | – | 1 | – | 0.786 | 0.229 | 0.247 | 0.223 | 0.237 | – | –
LCLC-103H | 0.699 | 0.769 | 0.79 | 0.799 | 0.968 | 1.03 | 1.14 | 1.06 | 1.24 | – | – | – | – | 0.708 | 0.735 | 0.682 | 0.679 | 0.723 | 0.653
LK-2 | 0.673 | 0.735 | 0.807 | 0.539 | 0.224 | 0.239 | 0.213 | 0.21 | 0.235 | 0.82 | 0.861 | 0.696 | 0.54 | 0.318 | 0.324 | 0.243 | 0.277 | 0.575 | 0.228
LOU-NH91 | 0.888 | 0.926 | 0.96 | 0.931 | 0.726 | 0.731 | 0.711 | 0.757 | 0.761 | 0.717 | 0.788 | 0.755 | 0.709 | 0.78 | 0.828 | 0.828 | 0.769 | 0.925 | 0.808
LU99A | 0.243 | 0.313 | 0.275 | 0.267 | 0.499 | 0.533 | 0.53 | 0.606 | 0.568 | 0.98 | 1.13 | 0.951 | 0.868 | 0.916 | 0.935 | 0.953 | 0.961 | – | –
NCI-H441 | 0.519 | 0.511 | 0.429 | 0.611 | 0.686 | 0.704 | 0.639 | 0.625 | 0.596 | – | – | – | – | 0.272 | 0.229 | 0.257 | 0.252 | 0.558 | 0.239
NCI-H522 | 0.617 | 0.678 | 0.707 | 0.642 | – | – | – | – | – | – | – | – | – | 0.666 | 0.817 | 0.73 | 0.673 | 0.587 | 0.658
NCI-H1299 | 0.961 | 0.934 | 0.993 | 0.865 | 0.983 | 0.913 | 0.921 | 0.969 | 0.892 | 0.956 | 0.968 | 0.979 | 0.934 | – | – | – | – | 1 | –
NCI-H1395 | 0.44 | 0.461 | 0.446 | 0.473 | – | – | – | – | – | – | 0.888 | 0.782 | 0.753 | 0.69 | 0.638 | 0.766 | 0.743 | 0.428 | 0.651
NCI-H1563 | – | – | – | – | 0.963 | 0.88 | 0.894 | 0.878 | 0.888 | 0.86 | 0.856 | 0.885 | 0.727 | – | – | – | – | – | –
NCI-H1648 | – | 0.61 | 0.515 | 0.419 | – | – | – | – | – | – | – | – | – | – | 0.528 | 0.568 | 0.46 | – | –
NCI-H1703 | – | 0.223 | 0.244 | 0.194 | 0.587 | 0.628 | 0.261 | 0.215 | 0.221 | 0.989 | 0.787 | 0.339 | 0.313 | – | – | – | – | 0.465 | –
NCI-H1793 | 0.8 | 1.03 | 0.906 | 1.05 | – | – | – | – | – | 0.645 | 0.786 | 0.645 | 0.459 | 0.516 | 0.488 | 0.506 | 0.627 | – | –
NCI-H2228 | 0.492 | 0.611 | 0.574 | 0.48 | 0.51 | 0.446 | 0.402 | 0.496 | 0.366 | 1.07 | 1.51 | 1.15 | 1.13 | – | – | – | – | 0.829 | –
NCI-H2342 | 0.443 | 0.481 | 0.386 | 0.365 | – | – | – | – | – | – | – | – | – | 0.684 | 0.918 | 0.612 | 0.697 | 0.385 | 0.678
SW 900 | 1.07 | – | 0.915 | 0.945 | – | – | – | – | – | – | – | – | – | 0.453 | – | 0.462 | 0.505 | 0.942 | 0.516
